The text below walks through data of patent US8372832B2 (priority 2006, dated 2013).

SMILES strings stand for the structures.

The target in this assay is α7-subtype of nicotinic receptors (Rattus norvegicus, UniProt Q05941). Nature of the assay: biochemical. Type of assay: binding.
Chain of α7-subtype of nicotinic receptors (Q05941 23-502): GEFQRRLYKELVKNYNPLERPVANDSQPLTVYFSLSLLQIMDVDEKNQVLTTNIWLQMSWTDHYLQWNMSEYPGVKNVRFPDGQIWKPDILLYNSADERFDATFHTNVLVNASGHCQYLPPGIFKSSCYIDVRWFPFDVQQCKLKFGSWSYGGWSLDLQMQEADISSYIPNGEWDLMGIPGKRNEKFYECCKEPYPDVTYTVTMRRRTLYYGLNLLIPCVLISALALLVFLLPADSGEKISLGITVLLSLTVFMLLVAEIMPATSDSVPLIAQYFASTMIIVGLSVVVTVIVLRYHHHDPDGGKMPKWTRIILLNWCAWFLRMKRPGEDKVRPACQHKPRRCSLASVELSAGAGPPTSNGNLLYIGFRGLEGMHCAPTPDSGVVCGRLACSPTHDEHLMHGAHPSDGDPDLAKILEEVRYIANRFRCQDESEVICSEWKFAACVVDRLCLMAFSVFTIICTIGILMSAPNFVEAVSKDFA

For the molecule `Brc1ccc(-c2nnc(N3CCN4CCC3CC4)o2)o1` [Compound A1, 4-[5-(5-Bromo-furan-2-yl)-[1,3,4]oxadiazol-2-yl]-1,4-diaza-bicyclo[3.2.2]nonane], the IC50 is < 10 nM.
